Where “and” joins values, the source holds several entries; their conditions need not be identical. Identical values can stand only once.
Test system: neonatal rat cardiomyocytes
Assay: cDNA microarray analysis (Affymetrix Rat Expression Set 230), x-fold changes of clustered genes
Type: cell-based
Details: 72 h, experiments (1) and (2)
Experimental: Animal experiments were performed in accordance with guidelines of Children's Hospital, Boston and UCLA. Ventricular cardiomyocytes from fetal (E19), 2-day-old (P2) and adult (250-350 g) Wistar rats (Charles River) were isolated as described with minor modifications (Engel et al. 1999; Engel et al. 2003). After digestion of fetal or neonatal hearts (0.14 mg/ml collagenase II (Invitrogen), 0.55 mg/ml pancreatin (Sigma)) cells were cultured in DMEM/F12 (GIBCO) containing 3 mM Na-pyruvate, 0.2% BSA, 0.1 mM ascorbic acid (Sigma), 0.5% Insulin-Transferrin-Selenium (100×), penicillin (100 U/ml), streptomycin (100 μg/ml), and 2 mM L-glutamine (GIBCO). Adult cardiomyocytes were cultured for 1 day in standard medium (DMEM, 25 mM Hepes, 5 mM taurine, 5 mM creatine, 2 mM L-carnitine (Sigma), 20 U/ml insulin (GIBCO), 0.2% BSA, penicillin (100 U/ml), and streptomycin (100 μg/ml)). Cells were stimulated in culture medium without BSA containing 2 mM L-glutamine. Neonatal and adult cardiomyocytes were initially cultured for 48 h in the presence of 20 μM cytosine β-D-arabinofuranoside (araC, Sigma) and 5% horse serum before stimulation to prevent proliferation of non-myocytes. Adult cardiomyocytes were incubated another 3 days with araC during stimulation. Neonatal cardiomyocytes were stimulated every day with growth factors for BrdU and H3P analyses (FGF1 and NRG-1-1β at 50 ng/ml, IL-1β at 100 ng/ml, R&D Systems, all diluted in 0.1% BSA/PBS). SB203580 and LY294002 (Calbiochem) was added every day. Adult cardiomyocytes were stimulated with fresh medium and SB203580 every 3 days.
RNA of neonatal cardiomyocytes was prepared 72 h after stimulation using Trizol (Invitrogen). RT-PCR was performed following standard protocols (Supplemental Table S4). Affymetrix technology was applied using the Rat Expression Set 230.
To determine the effect of p38 inhibition on cardiomyocyte differentiation and proliferation, a specific inhibitor of p38α and p38β, SB203580, was used and evaluated using cDNA microarray analyses using neonatal rat cardiomyocytes. […] Expression changes of a subset of genes were validated by RT-PCR.
Stimulation of neonatal cardiomyocytes with FGF1 induces fetal gene expression. To determine if FGF1, in combination with p38 inhibition, can reverse differentiation and induce cell cycle re-entry, we repeated cDNA microarray analyses (Supplemental Table S1). […]

- Protein tyrosine phosphatase, receptor type, D (Ptprd) expression, x-fold change: 0.5 x-fold
- Serine-threonine specific protein phosphatase, GL subunit expression, x-fold change: 0.7 x-fold
- Adrenergic, alpha 1B-, receptor expression, x-fold change (listed as FGF): 0.8 x-fold and 0.7 x-fold
- Cacalmodulin-dependent protein kinase phosphatase expression, x-fold change (listed as FGF): 0.9 x-fold and 1.3 x-fold
- Casein kinase I delta expression, x-fold change (listed as FGF): 1.3 x-fold and 0.9 x-fold
- Growth hormone receptor expression, x-fold change (listed as FGF): 0.7 x-fold and 0.8 x-fold
Substance: FGF1: growth factor FGF1 (R&D Systems)
- Actn1 expression, x-fold change: 1.9 x-fold
- CXC chemokine LIX expression, x-fold change: 0.4 x-fold
- Cdc42 effector protein expression, x-fold change: 0.8 x-fold
- Cfl1 expression, x-fold change: 0.6 x-fold
- Connexin 40 expression, x-fold change: 0.8 x-fold
- Edg2 expression, x-fold change: 0.4 x-fold
- Enigma expression, x-fold change: 2.3 x-fold
- Epha3 expression, x-fold change: 0.5 x-fold
- Epidermal growth factor-like protein, T16 precursor expression, x-fold change: 0.3 x-fold
- Fgf16 expression, x-fold change: 0.8 x-fold
- Figf expression, x-fold change: 0.3 x-fold
- Kruppel-like factor 4 expression, x-fold change: 1.1 x-fold
- Lgals5 expression, x-fold change: 2.9 x-fold
- Maf-2 expression, x-fold change: 0.5 x-fold
- Mtss1 expression, x-fold change: 0.5 x-fold
- Nr2f2/COUP-TFII expression, x-fold change: 0.8 x-fold
- Nudt4 expression, x-fold change: 0.8 x-fold
- Osteoglycin expression, x-fold change: 0.4 x-fold
- Osterix expression, x-fold change: 0.6 x-fold
- PTTG1 expression, x-fold change: 1.4 x-fold
- RPTPK expression, x-fold change: 0.4 x-fold
- Rbp2 expression, x-fold change: 0.6 x-fold
- Rdc1 expression, x-fold change: 0.5 x-fold
- Rev-ErbA-beta expression, x-fold change: 0.7 x-fold
- RhoGAP expression, x-fold change: 0.8 x-fold
- Septin 6 expression, x-fold change: 1.9 x-fold
- Seta expression, x-fold change: 1.0 x-fold
- TRAF4 associated factor 1 expression, x-fold change: 1.9 x-fold
- Troponin I, slow isoform expression, x-fold change: 0.6 x-fold
- Vcam1 expression, x-fold change: 0.3 x-fold
- Wisp2 expression, x-fold change: 0.8 x-fold
- (BEM)-3 expression, x-fold change (listed as FGF): 1.4 x-fold and 1.6 x-fold
- AGTR1 expression, x-fold change (listed as FGF): 0.4 x-fold and 0.5 x-fold
- Acta1 expression, x-fold change (listed as FGF): 4.8 x-fold and 6.3 x-fold
- Actinin expression, x-fold change (listed as FGF): 1.8 x-fold and 1.5 x-fold
- Adrenomedullin precursor expression, x-fold change (listed as FGF): 0.4 x-fold and 0.6 x-fold
- Agtr1a expression, x-fold change (listed as FGF): 0.6 x-fold and 0.4 x-fold
- Anillin expression, x-fold change (listed as FGF): 3.3 x-fold and 1.9 x-fold
- Ankyrin 2, neuronal expression, x-fold change (listed as FGF): 0.6 x-fold and 0.7 x-fold
- Ankyrin repeat domain-containing SOCS box protein 12 expression, x-fold change (listed as FGF): 0.5 x-fold and 0.6 x-fold
- Apoptosis protein MA-3 expression, x-fold change (listed as FGF): 0.8 x-fold and 0.7 x-fold
- Arrestin domain containing 3 expression, x-fold change (listed as FGF): 0.3 x-fold and 0.5 x-fold
- Aurora B expression, x-fold change (listed as FGF): 1.5 x-fold and 1.9 x-fold
- BMP2 expression, x-fold change (listed as FGF): 6.0 x-fold and 3.4 x-fold
- BMP6 precursor expression, x-fold change (listed as FGF): 1.4 x-fold and 1.7 x-fold
- BOC expression, x-fold change (listed as FGF): 0.5 x-fold and 0.6 x-fold
- Bcl2a1 expression, x-fold change (listed as FGF): 0.4 x-fold and 0.6 x-fold
- Bmp3 expression, x-fold change (listed as FGF): 0.5 x-fold and 0.6 x-fold
- Bub1 expression, x-fold change (listed as FGF): 1.4 x-fold and 1.2 x-fold
- CABC1 expression, x-fold change (listed as FGF): 0.6 x-fold and 0.5 x-fold
- CDKN3/KAP/CDI1 expression, x-fold change (listed as FGF): 1.7 x-fold and 2.0 x-fold
- CENP-E expression, x-fold change (listed as FGF): 1.3 x-fold and 1.7 x-fold
- CISH expression, x-fold change (listed as FGF): 0.4 x-fold and 0.5 x-fold
- CKS2 expression, x-fold change (listed as FGF): 1.7 x-fold and 1.4 x-fold
- CREB5 expression, x-fold change (listed as FGF): 1.3 x-fold and 1.8 x-fold
- CSRP1 expression, x-fold change (listed as FGF): 1.9 x-fold and 1.8 x-fold
- CXCL4 expression, x-fold change (listed as FGF): 0.7 x-fold and 0.6 x-fold
- Cadherin 13 expression, x-fold change (listed as FGF): 1.5 x-fold and 1.9 x-fold
- Calponin 1 expression, x-fold change (listed as FGF): 6.4 x-fold and 4.9 x-fold
- Catenin, alpha-1 expression, x-fold change (listed as FGF): 1.6 x-fold and 1.5 x-fold
- Cdc2a expression, x-fold change (listed as FGF): 1.7 x-fold and 1.8 x-fold
- Cdc20 expression, x-fold change (listed as FGF): 1.9 x-fold and 1.7 x-fold
- Cdc25B expression, x-fold change (listed as FGF): 1.6 x-fold and 1.3 x-fold
- Cdca3 expression, x-fold change (listed as FGF): 1.3 x-fold and 1.4 x-fold
- Cish2 expression, x-fold change (listed as FGF): 0.6 x-fold and 0.8 x-fold
- Cish3 expression, x-fold change (listed as FGF): 0.8 x-fold and 0.9 x-fold
- Cish expression, x-fold change (listed as FGF): 0.4 x-fold and 0.5 x-fold
- Connexin 43 expression, x-fold change (listed as FGF): 0.9 x-fold and 0.8 x-fold
- Csrp3/MLP expression, x-fold change (listed as FGF): 2.7 x-fold and 4.2 x-fold
- Ctgf expression, x-fold change (listed as FGF): 1.9 x-fold and 1.6 x-fold
- Cxcl12 expression, x-fold change (listed as FGF): 0.5 x-fold and 0.3 x-fold
- Cyclin A2 expression, x-fold change (listed as FGF): 1.8 x-fold and 1.1 x-fold
- Cyclin B1 expression, x-fold change (listed as FGF): 1.2 x-fold and 1.0 x-fold
- Cyclin B expression, x-fold change (listed as FGF): 1.9 x-fold and 1.8 x-fold
- Cyclin D1 expression, x-fold change (listed as FGF): 4.2 x-fold and 3.3 x-fold
- DAPK1 expression, x-fold change (listed as FGF): 0.6 x-fold and 0.5 x-fold
- DUSP6 expression, x-fold change (listed as FGF): 2.8 x-fold and 4.4 x-fold
- Ddr2 expression, x-fold change (listed as FGF): 0.5 x-fold and 0.8 x-fold
- Desmin expression, x-fold change (listed as FGF): 2.2 x-fold and 1.8 x-fold
- Diaphanous homolog 3 expression, x-fold change (listed as FGF): 2.5 x-fold and 1.9 x-fold
- Dok-5 expression, x-fold change (listed as FGF): 2.7 x-fold and 2.6 x-fold
- Dri42 expression, x-fold change (listed as FGF): 0.5 x-fold and 0.3 x-fold
- ETV5/ERM/PEA3 expression, x-fold change (listed as FGF): 20.4 x-fold and 11.2 x-fold
- Ect2 expression, x-fold change (listed as FGF): 1.9 x-fold and 2.5 x-fold
- Egfl3 expression, x-fold change (listed as FGF): 0.4 x-fold and 0.5 x-fold
- Emr1 expression, x-fold change (listed as FGF): 0.6 x-fold and 0.4 x-fold
- EphA2 expression, x-fold change (listed as FGF): 2.2 x-fold and 1.7 x-fold
- Ephrin B3 expression, x-fold change (listed as FGF): 0.7 x-fold and 0.8 x-fold
- FCEG expression, x-fold change (listed as FGF): 0.7 x-fold and 0.5 x-fold
- FHL1 expression, x-fold change (listed as FGF): 7.3 x-fold and 5.1 x-fold
- FHOS2 expression, x-fold change (listed as FGF): 0.7 x-fold and 0.8 x-fold
- Fancd2 expression, x-fold change (listed as FGF): 0.7 x-fold and 1.1 x-fold
- Fbln5 expression, x-fold change (listed as FGF): 0.4 x-fold and 0.6 x-fold
- Fcgr2 expression, x-fold change (listed as FGF): 0.5 x-fold and 0.6 x-fold
- Fcgr3 expression, x-fold change (listed as FGF): 0.5 x-fold and 0.6 x-fold
- Flt4/VEGFR3 expression, x-fold change (listed as FGF): 1.8 x-fold and 2.5 x-fold
- Frizzled-related protein 2 expression, x-fold change (listed as FGF): 0.5 x-fold and 0.3 x-fold
- Fzd1 expression, x-fold change (listed as FGF): 0.7 x-fold and 0.8 x-fold
- G0S2-like protein expression, x-fold change (listed as FGF): 0.5 x-fold and 0.6 x-fold
- GADD45a expression, x-fold change (listed as FGF): 1.8 x-fold and 1.3 x-fold
- GADD45 gamma expression, x-fold change (listed as FGF): 3.0 x-fold and 2.9 x-fold
- GDF15 expression, x-fold change (listed as FGF): 1.6 x-fold and 2.6 x-fold
- GOA1B expression, x-fold change (listed as FGF): 2.9 x-fold and 3.0 x-fold
- Gab1 expression, x-fold change (listed as FGF): 0.6 x-fold and 0.7 x-fold
- Ghr expression, x-fold change (listed as FGF): 0.9 x-fold and 0.8 x-fold
- Glypican (GPC)-3 expression, x-fold change (listed as FGF): 0.4 x-fold and 0.5 x-fold

Source: US20060281791A1, “Methods of increasing proliferation of adult mammalian cardiomyocytes through p38 map kinase inhibition” (CHILDREN'S MEDICAL CENTER CORPORATION, priority 2005, published 2006)
